Measured values as given in patent US20080051429A1, “USE OF 4-AMINO-PIPERIDINES FOR TREATING SLEEP DISORDERS” (priority 2006, published 2008).

Tests used:
[1] = target: T1, D5 (Homo sapiens, UniProt P21918); assay: R-SAT broad profiling; assay type: cell-based; settings: read-out: pEC50/pIC50 (converted)
T1 construct: expressed in transfected cells; host or cells: NIH3T3
Description: (§1) The functional receptor assay, Receptor Selection and Amplification Technology (R-SAT), was used (with minor modifications from that previously described U.S. Pat. No. 5,707,798) to screen compounds for efficacy at the 5-HT2A receptor. Briefly, NIH3T3 cells were grown in 96 well tissue culture plates to 70-80% confluence. Cells were transfected for 12-16 hours with plasmid DNAs using superfect (Qiagen Inc.) as per manufacture's protocols. R-SAT's were generally performed with 50 ng/well of receptor and 20 ng/well of Beta-galactosidase plasmid DNA. All receptor and G-protein constructs used were in the pSI mammalian expression vector (Promega Inc) as described in U.S. Pat. No. 5,707,798. The 5HT2A receptor gene was amplified by nested PCR from brain cDNA using the oligodeoxynucleotides based on the published sequence (see Saltzman et. al. Biochem. Biophys. Res. Comm. 181:1469-78 (1991)). Large-scale transfections, cells were transfected for 12-16 hours, then trypsinized and frozen in DMSO. Frozen cells were later thawed, plated at 10,000-40,000 cells per well of a 96 well plate that contained drug. With both methods, cells were then grown in a humidified atmosphere with 5% ambient CO2 for five days. Media was then removed from the plates and marker gene activity was measured by the addition of the beta-galactosidase substrate ONPG (in PBS with 5% NP-40). The resulting colorimetric reaction was measured in a spectrophotometric plate reader (Titertek Inc.)at […]. All data were analyzed using the computer program XLFit (IDBSm). Efficacy is the percent maximal repression compared to repression by a control compound (ritanserin in the case of 5HT2A). pIC50 is the negative of the log(IC50), where IC50 is the calculated concentration in Molar that produces 50% maximal repression.
(§2) The R-SAT assay (described above in example 136) was used to investigate the selectivity of 2-(4-Methoxyphenyl)-N-(4-methylbenzyl)-N-(1-methylpiperidin-4-yl)acetamide hydrochloride.

[2] = target: T2, alpha 2A (Homo sapiens, UniProt P08913); assay: R-SAT broad profiling; assay type: cell-based; settings: read-out: pEC50/pIC50 (converted)
T2 construct: expressed in transfected cells; host or cells: NIH3T3
T2 sequence (P08913 1-465): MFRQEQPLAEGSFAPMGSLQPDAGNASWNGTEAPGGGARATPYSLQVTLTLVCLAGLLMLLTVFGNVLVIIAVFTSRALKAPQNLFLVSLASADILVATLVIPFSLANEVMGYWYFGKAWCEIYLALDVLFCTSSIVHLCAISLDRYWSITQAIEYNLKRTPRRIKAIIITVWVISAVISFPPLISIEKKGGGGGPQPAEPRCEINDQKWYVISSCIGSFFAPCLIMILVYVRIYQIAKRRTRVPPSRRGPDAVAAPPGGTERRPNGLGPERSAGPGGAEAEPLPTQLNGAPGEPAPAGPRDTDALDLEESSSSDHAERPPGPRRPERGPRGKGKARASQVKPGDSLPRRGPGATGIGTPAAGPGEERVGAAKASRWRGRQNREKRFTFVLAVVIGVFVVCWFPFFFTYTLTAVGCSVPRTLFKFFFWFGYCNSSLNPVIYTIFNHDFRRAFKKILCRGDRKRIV
Description: as §1, §2

[3] = target: T3, m1 (Homo sapiens, UniProt P11229); assay: R-SAT broad profiling; assay type: cell-based; settings: read-out: pEC50/pIC50 (converted)
T3 construct: expressed in transfected cells; host or cells: NIH3T3
T3 sequence (P11229 1-460): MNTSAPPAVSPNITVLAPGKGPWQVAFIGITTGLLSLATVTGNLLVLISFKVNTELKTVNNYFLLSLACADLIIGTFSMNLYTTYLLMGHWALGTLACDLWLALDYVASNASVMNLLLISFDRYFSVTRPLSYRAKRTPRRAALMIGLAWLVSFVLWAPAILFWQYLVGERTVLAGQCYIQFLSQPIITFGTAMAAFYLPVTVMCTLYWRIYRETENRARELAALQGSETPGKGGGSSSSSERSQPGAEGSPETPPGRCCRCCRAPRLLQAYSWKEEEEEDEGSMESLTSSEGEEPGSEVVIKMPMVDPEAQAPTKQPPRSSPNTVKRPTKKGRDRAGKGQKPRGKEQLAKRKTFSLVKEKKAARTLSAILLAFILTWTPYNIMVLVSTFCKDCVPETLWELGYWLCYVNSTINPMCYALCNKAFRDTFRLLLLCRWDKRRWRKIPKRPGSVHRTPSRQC
Description: as §1, §2

[4] = target: T4, m4 (Homo sapiens, UniProt P08173); assay: R-SAT broad profiling; assay type: cell-based; settings: read-out: pEC50/pIC50 (converted)
T4 construct: expressed in transfected cells; host or cells: NIH3T3
T4 sequence (P08173 1-479): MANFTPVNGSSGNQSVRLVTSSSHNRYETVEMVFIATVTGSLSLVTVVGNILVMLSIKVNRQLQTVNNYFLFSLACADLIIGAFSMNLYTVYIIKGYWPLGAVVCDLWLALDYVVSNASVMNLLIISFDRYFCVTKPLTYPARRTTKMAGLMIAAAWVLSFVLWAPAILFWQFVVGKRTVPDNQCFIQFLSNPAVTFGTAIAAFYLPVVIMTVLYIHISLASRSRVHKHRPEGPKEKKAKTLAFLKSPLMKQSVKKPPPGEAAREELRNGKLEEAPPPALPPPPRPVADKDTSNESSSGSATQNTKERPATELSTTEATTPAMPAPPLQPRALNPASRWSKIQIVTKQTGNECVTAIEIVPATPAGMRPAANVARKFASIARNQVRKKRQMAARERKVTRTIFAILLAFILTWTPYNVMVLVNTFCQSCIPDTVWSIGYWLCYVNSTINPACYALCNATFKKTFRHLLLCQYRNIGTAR
Description: as §1, §2

[5] = target: D2 (Homo sapiens, UniProt P14416); assay: R-SAT broad profiling; assay type: cell-based; set-up: expressed in transfected cells; host or cells: NIH3T3; settings: read-out: pEC50/pIC50 (converted)
Description: as §1, with “Frozen cells were later thawed, plated at 10,000-40,000 cells per well of a 96 well plate that contained drug. With both methods, cells were then grown in a humidified atmosphere with 5% ambient CO2 for five days.” left out, “Efficacy is the percent maximal repression compared to repression by a control compound (ritanserin in the case of 5HT2A). pIC50 is the negative of the log(IC50), where IC50 is the calculated concentration in Molar that produces 50% maximal repression.” left out

[6] = test system: healthy volunteers; assay: Continuous Performance Test (CPT); assay type: in vivo, human
Description: Performance Assessment: A Continuous Performance Test (CPT; Rosvold M E, Mirsky A F, Sarason I, Bransome E R Jr., Beck L H (1956) A continuous performance test for brain damage. J Consult Psychol 20:343-350, which is incorporated herein by reference in its entirety), was used to evaluate attention and vigilance. The test was administered both during the evening and the morning following the baseline PSG on Day 1 and the evaluation PSG on Day 13. Participants were rapidly presented a numerical train with a target number as point of reference. Participants pushed a button rapidly when the target number appeared in the number list. The procedure lasted three minutes. The number of targets detected and the number of false alarms were assessed.

Sequence of D2 (P14416 whole entry): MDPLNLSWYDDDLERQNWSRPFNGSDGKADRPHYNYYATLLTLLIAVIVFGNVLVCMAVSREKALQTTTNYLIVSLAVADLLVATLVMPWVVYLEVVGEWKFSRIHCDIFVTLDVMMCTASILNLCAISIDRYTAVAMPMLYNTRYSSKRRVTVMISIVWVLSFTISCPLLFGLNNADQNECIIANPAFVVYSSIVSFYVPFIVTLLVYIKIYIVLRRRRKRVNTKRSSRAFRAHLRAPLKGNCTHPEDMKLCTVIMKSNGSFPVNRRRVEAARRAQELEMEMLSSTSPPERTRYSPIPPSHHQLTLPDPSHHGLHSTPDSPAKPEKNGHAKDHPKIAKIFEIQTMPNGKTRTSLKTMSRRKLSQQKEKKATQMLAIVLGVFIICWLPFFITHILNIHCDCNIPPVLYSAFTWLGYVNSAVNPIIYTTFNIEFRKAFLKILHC
T1 sequence (P21918 whole entry): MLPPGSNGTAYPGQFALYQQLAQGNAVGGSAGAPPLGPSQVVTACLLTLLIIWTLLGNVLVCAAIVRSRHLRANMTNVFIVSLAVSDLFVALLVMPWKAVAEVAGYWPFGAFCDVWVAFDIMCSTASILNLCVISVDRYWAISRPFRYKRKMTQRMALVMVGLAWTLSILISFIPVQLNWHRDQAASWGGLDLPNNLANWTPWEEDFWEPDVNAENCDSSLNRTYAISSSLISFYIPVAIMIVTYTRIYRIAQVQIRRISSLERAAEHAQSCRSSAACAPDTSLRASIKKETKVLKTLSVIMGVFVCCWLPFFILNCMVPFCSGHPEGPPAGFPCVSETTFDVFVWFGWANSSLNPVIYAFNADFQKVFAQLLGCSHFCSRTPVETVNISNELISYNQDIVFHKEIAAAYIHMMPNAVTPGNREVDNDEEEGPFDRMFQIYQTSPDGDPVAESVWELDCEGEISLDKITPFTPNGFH

| EC50 ([1]; agonist) | IC50 ([1]; antagonist) | EC50 ([2]; agonist) | IC50 ([2]; antagonist) | EC50 ([3]; agonist) | IC50 ([3]; antagonist) | EC50 ([4]; agonist) | IC50 ([4]; antagonist) | EC50 ([5]; agonist) | IC50 ([5]; antagonist) | CPT detected targets and false alarm change scores ([6]; any dose, evening and morning (p>0.10)) | daytime functioning ([6]; in words) | Compound |
| --- | --- | --- | --- | --- | --- | --- | --- | --- | --- | --- | --- | --- |
| > 3.16 µM | > 3.16 µM | > 3.16 µM | > 3.16 µM | > 3.16 µM | > 3.16 µM | > 3.16 µM | > 3.16 µM | > 3.16 µM | > 3.16 µM |  |  | COc1ccc(CC(=O)N(Cc2ccc(C)cc2)C2CCN(C)CC2)cc1 [Example 50ELH27, 2-(4-Methoxyphenyl)-N-(4-methylbenzyl)-N-(1-methylpiperidin-4-yl)acetamide] |
|  |  |  |  |  |  |  |  |  |  | absence of effect | did not impair | CC(C)COc1ccc(CNC(=O)N(Cc2ccc(F)cc2)C2CCN(C)CC2)cc1 [N-(1-methylpiperidin-4-yl)-N-(4-fluorophenylmethyl)-N′-(4-(2-methylpropyloxy)phenylmethyl)carbamide] |
